Assay results taken from a melting point compilation (Tetko et al.; mined from patent text by program, amines drawn as free bases though some values may be those of a salt).

Row | Compound | melting point
1 | CC(CC(=O)Nc1c(Cl)ccc2nc(N3CCC(N)C3)ccc12)c1ccccc1 (configuration not stated) | 204 to 207 °C
2 | O=C(NO)c1ccc(OC/C=C/COc2ccc(C(=O)NO)cc2)cc1 | 205 to 210 °C
3 | CCN(CC)CC#CC(=O)c1ccc(C)cc1 | 115 to 117 °C
4 | Nc1ncnc2sc(CCO)c(-c3ccc(NC(=O)Nc4cccc(C(F)(F)F)c4)cc3)c12 | 155 to 158 °C
5 | COc1cc(C(O)CS(C)(=O)=O)cc(OC)c1-n1cccc1 (configuration not stated) | 192 °C
6 | COc1ccc(Cc2nnc(N[C@H]3CO[C@H](C(C)C)OC3)c3ccccc23)cn1 | 186 to 187 °C
7 | O=C1CCC(C(=O)c2ccc(Cl)cc2)N1 (configuration not stated) | 174 °C
8 | CCc1nc2c(N)nc3ccccc3c2n1CC1(O)CCCCC1 | 217 to 218 °C
9 | CC(C)Cn1cc(-c2ccc3nnn(Cc4ccc5ncccc5c4)c3n2)cn1 | 160 to 163 °C
10 | COc1ccc2c(C=O)cccc2c1C(F)(F)F | 92 to 94 °C
11 | O=c1ncc(Cl)cn1COCc1cccs1 | 132 °C
12 | Cc1ccc(C(=O)Nc2nc(-c3ccccc3)c(-c3nc4ccccc4c(=O)n3-c3ccccc3Cl)s2)cc1 | > 275 °C
13 | CCCNC(=O)CSc1nc(Cl)cc(Nc2cccc(C)c2C)n1 | 146 to 148 °C
14 | Cc1ccc(-c2cccc(/C=C/C(=O)Nc3ccc(CCl)cc3)c2)cc1 | 178 to 180 °C
15 | Cc1cc(NC(=O)NN(c2ccccc2)c2cccc(C#N)c2)ccc1N1CCOCC1 | 115 to 116 °C
16 | CC(C)(C)NC(=O)N1CCn2cc(-c3ccccc3)c(C(N)=O)c2C1 | 156 to 158 °C
17 | COc1ccc(CN(C)CCCCc2ccc(NC(=O)c3cccc4c(=O)c5ccccc5[nH]c34)cc2)cc1OC | 140 °C
18 | O=c1c(Cc2ccccc2)c2n(c(=O)n1Cc1ccccc1)CCCS2 | 110 to 112 °C
19 | CC1=CCC(=Nc2cc([N+](=O)[O-])ccc2O)S1 | 202 to 204 °C
20 | CCN(CC)CCNC(=O)c1ccc2cc(I)ccc2n1 | 75 to 77 °C
21 | COc1nc(C)cnc1NS(=O)(=O)c1ccccc1-c1ccc(CC(C)C)c([N+](=O)[O-])c1 | 114 to 115 °C
22 | CCCn1nnn(-c2cc(OS(C)(=O)=O)c(Cl)cc2Cl)c1=O | 64 to 65 °C
23 | O=C(NCCCS(=O)c1ccncc1)c1cccs1 (configuration not stated) | 101 to 102 °C
24 | CCCc1c(OCCCCCC(=O)NCCc2cccnc2)ccc(C(C)=O)c1O | 76 to 78 °C
25 | Nc1ccc(S(=O)(=O)c2cc(Br)nc(N3CCNCC3)c2)cc1 | 173 to 175 °C
26 | CC1(C)OC[C@H](CON2C(=O)c3ccccc3C2=O)O1 | 100 to 102 °C

Row | Compound | melting point
27 | COc1ccc(CCc2cc3cc(Br)ccc3o2)cc1 | 109 to 111 °C
28 | CCCN1CCCC2(Cc3ccccc3NC2=O)C1=O (configuration not stated) | 151 to 154 °C
29 | CCCC(C)N1CCC2(CC1)CSC1=C(O2)c2ccccc2C(=O)C1=O (configuration not stated) | 109 to 111 °C
30 | O=C(COc1ccccc1)NC1C(=O)N2C1SCN(O)C2C(=O)OCc1ccccc1 (configuration not stated) | 184 to 186 °C
31 | FC(F)C(F)(F)Sc1nc(-c2ccco2)c(-c2ccco2)[nH]1 | 166 to 167 °C
32 | O=C(CCO)Nc1cccc(-c2ccc3c(c2)C(c2ccc(Cl)cc2Cl)CC3)c1 (configuration not stated) | 202 to 203 °C
33 | CC(C#Cc1cccc(Oc2ccsc2)c1)N(O)C(N)=O (configuration not stated) | 93 to 95 °C
34 | CCCCOc1ccc(C(=O)CCCCC(=O)O)cc1 | 95 °C
35 | O=C(O)C(Cc1ccccc1)NC(=S)Cc1cccc2ccccc12 (configuration not stated) | 130 to 132 °C
36 | O=C(/C=C/c1cccc(S(=O)(=O)N2CCN(Cc3ccc4c(c3)OCO4)CC2)c1)NO | 172 °C
37 | Nc1ccc(C(=O)C(O)c2ccccc2)cc1 (configuration not stated) | 199 to 203 °C
38 | CC(C)c1cccc(C(C)C)c1NC(=O)NCCN1CCN(CCSc2nc3ccccc3[nH]2)CC1 | 120 to 122 °C
39 | CC(C)c1ccc(S(=O)(=O)n2c(CBr)cc3cc(C(F)(F)F)ccc32)cc1 | 100 °C
40 | C=CC1CCC2C3CCC4=CC(O)C=CC4(C)C3CCC12C (configuration not stated) | 98 to 128 °C
41 | CC(=O)OC1CCC2(C)C(=CCC3C2CCC2(C)C(C(C)C(O)CCC(C)(C)C)CCC32)C1 (configuration not stated) | 185 to 187 °C
42 | NCc1ccc(-c2csc(N)n2)s1 | 189 °C
43 | CC(C)Cc1nc2c(C(F)(F)F)cccc2c(O)c1C(=O)O | 200 °C
44 | Oc1cc2ccc(CCCCCl)cc2cc1O | 54 to 59 °C
45 | C[C@@H]1OC=C[C@H](NC(=O)C(F)(F)F)[C@@]1(O)OC(=O)C(F)(F)F | 73 to 74 °C
46 | Cc1nc(=O)[nH]c2cc(N(C)C)ccc12 | > 300 °C
47 | CCCc1c2oc(C(=O)O)cc(=O)c2cc2c(=O)ccn(Cc3ccccc3)c12 | > 250 °C
48 | CC1=NOCC1(C)S(=O)(=O)n1nc(Cl)nc1-c1ccccc1 (configuration not stated) | 70 to 74 °C
49 | O=C(Nc1nnn[nH]1)c1csc(-c2ncccc2O)n1 | > 300 °C
50 | Fc1ccc(Cn2c(NC3CCN(CCSc4nc5ccccc5o4)CC3)nc3ccccc32)cc1 | 174 °C
51 | CCOP(=S)(CNSCNC(=O)ON=C(C)SC)OCC | 72 to 73 °C
52 | COC(=O)c1ccc(N(C(=O)c2ccccc2-c2ccccc2)C(=O)c2ccccc2-c2ccccc2)nc1 | 180 to 188 °C
